Test results: US11331299B2, “Medicinal use of serrulatane diterpenes” (The University of Sydney, priority 2016, dated 2022)
pEC50, pIC50: −log10 of the molar value. Like-named read-outs stand apart in the source and are kept apart here.

Assays:
CECR2 (h) bromodomain = target: T1, CECR2 (h) bromodomain (Homo sapiens, UniProt Q9BXF3); assay: Epigenetic binding assay, Bromodomain; conditions: for inhibition at 10 µM: read-out: % Inhibition of Control Specific Binding
T1 construct: CECR2(h) bromodomain

CREBBP (h) bromodomain = target: T2, CREBBP (h) bromodomain (Homo sapiens, UniProt Q92793); assay: Epigenetic binding assay, Bromodomain; conditions: for inhibition at 10 µM: read-out: % Inhibition of Control Specific Binding
T2 construct: Bromodomain; Eurofins CEREP (France), contract laboratory

H3K27 ac = assay: Cell-based detection methyl modifications; conditions: read-out: % Inhibition of Control Values
H3K9 ac = assay: Cell-based detection methyl modifications; conditions: read-out: % Inhibition of Control Values
LSD1 (h) = LSD1 (h) (Homo sapiens, UniProt O60341); assay: Epigenetic enzyme assay, Demethylases (KDMs); assay type: biochemical; conditions: read-out: % Inhibition of Control Values
TIP60(h) = TIP60(h) (Homo sapiens, UniProt Q92993); assay: Epigenetic enzyme assay, Histone acetyltransferases (HATs); assay type: biochemical; conditions: read-out: % Inhibition of Control Values
ASH1L = ASH1L (Homo sapiens, UniProt Q9NR48); assay: Epigenetic enzyme assay, Methyltransferases (MTs); assay type: biochemical; conditions: for inhibition at 10 µM: read-out: % Inhibition of Control Values
MLL complex (h) = MLL complex (h) (Homo sapiens, UniProt Q03164); assay: Epigenetic enzyme assay, Methyltransferases (MTs); assay type: biochemical; conditions: for inhibition at 10 µM: read-out: % Inhibition of Control Values
SETD8 (h) = target: T3, SETD8 (h) (Homo sapiens, UniProt Q9NQR1); assay: Epigenetic enzyme assay, Methyltransferases (MTs); assay type: biochemical; conditions: 10 μM; read-out: % Inhibition of Control Values
T3 sequence (Q9NQR1 1-393): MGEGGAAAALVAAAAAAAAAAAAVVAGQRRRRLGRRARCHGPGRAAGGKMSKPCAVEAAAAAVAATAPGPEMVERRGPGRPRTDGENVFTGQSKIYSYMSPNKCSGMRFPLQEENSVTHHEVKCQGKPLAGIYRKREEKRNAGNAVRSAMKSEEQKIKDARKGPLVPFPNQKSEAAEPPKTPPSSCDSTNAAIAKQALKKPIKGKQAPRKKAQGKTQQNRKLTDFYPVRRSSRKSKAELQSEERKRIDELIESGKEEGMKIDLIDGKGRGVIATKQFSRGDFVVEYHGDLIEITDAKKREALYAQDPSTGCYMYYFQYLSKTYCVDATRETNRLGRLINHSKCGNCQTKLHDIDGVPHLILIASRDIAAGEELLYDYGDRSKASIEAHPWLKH

[1] = target: PKBalpha/AKT1(h) (substrate histone H3 full length) (Homo sapiens, UniProt P31749); assay: Epigenetic enzyme assay, Kinases; assay type: biochemical; conditions: read-out: % Inhibition of Control Values
[2] = target: Histamine N-methyltransferase (h) (Homo sapiens, UniProt P50135); assay: Epigenetic enzyme assay, Small molecule methyltransferases; assay type: biochemical; conditions: read-out: % Inhibition of Control Values
[3] = target: T4, Thiopurine S-methyltransferase (h) (Homo sapiens, UniProt P51580); assay: as above; assay type: biochemical; conditions: read-out: % Inhibition of Control Values
T4 sequence (P51580 1-245): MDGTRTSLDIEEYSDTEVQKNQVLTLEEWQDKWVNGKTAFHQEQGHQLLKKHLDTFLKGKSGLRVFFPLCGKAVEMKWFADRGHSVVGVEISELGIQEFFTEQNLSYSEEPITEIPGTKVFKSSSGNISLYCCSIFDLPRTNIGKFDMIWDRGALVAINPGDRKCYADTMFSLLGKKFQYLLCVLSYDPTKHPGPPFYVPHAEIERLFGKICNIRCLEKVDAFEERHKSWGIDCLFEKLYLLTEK

[4] = tested on: Chemokine CXCR1/2 (IL-8, Non-Selective); assay: Chemokine CXCR1/2 (IL-8, Non-Selective) radio ligand binding; parameters: species or system Human; conditions: 10 μM; assay year 2015
Experimental: (§1) The in vitro pharmacological studies were conducted by Eurofins PanLab (Taiwan) using the parameters shown in Table 13 with respect to appropriate literature references.

Deacetylase, Histone 2 = target: T5, Deacetylase, Histone 2 (Homo sapiens, UniProt Q92769); assay: Deacetylase, Histone 2 (PanLab); assay type: biochemical
T5 construct: host or cells: Insect Sf9 cells
Experimental: as §1

Histamine H1 = target: T6, Histamine H1 (Homo sapiens, UniProt P35367); assay: Histamine H1 radio ligand binding
T6 construct: expressed in transfected cells; host or cells: Chem-1 cells
Experimental: as §1

Lipoxygenase 12-LO = target: T7, Lipoxygenase 12-LO (Homo sapiens, UniProt P18054); assay: Lipoxygenase 12-LO; assay type: biochemical; conditions: assay year 2015, read-out: % Control Response
T7 construct: Human platelets; from tissue; host or cells: human platelets
T7 sequence (P18054 1-663): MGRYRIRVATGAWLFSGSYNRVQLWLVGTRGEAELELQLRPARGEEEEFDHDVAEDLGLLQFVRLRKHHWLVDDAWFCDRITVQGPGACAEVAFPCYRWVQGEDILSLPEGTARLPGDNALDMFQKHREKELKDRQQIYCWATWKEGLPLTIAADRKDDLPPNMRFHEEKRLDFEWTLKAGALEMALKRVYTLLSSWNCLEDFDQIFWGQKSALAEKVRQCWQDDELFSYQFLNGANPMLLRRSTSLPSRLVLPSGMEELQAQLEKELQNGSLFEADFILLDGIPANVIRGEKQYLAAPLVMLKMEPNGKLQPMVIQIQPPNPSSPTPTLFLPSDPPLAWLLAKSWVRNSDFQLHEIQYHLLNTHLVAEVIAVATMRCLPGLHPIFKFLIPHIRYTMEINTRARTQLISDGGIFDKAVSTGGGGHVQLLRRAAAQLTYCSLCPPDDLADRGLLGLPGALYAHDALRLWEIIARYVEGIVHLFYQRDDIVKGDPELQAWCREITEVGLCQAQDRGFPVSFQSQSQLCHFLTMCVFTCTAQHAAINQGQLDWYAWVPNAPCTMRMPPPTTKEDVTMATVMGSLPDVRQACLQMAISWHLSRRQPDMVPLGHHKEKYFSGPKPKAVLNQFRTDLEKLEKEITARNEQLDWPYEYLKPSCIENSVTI
Experimental: as §1

639-V = assay: OncoPanel cell proliferation assay (10-day); assay type: cell-based, human; conditions: for pEC50 / GI50 / pIC50: Homo sapiens, Bladder; for pEC50: read-out: Cell Count EC50; for GI50: read-out: Cell Count GI50; for pIC50: read-out: Cell Count IC50
HCT-8 = assay: OncoPanel cell proliferation assay (10-day); assay type: cell-based, human; conditions: for pEC50 / GI50 / pIC50: Homo sapiens, HCT-8, Colon; for pEC50: read-out: Cell Count EC50; for GI50: read-out: Cell Count GI50; for pIC50: read-out: Cell Count IC50
[5] = Table 9, inhibition/concentration-response curve
[6] = assay year 2014, read-out: % Control Response
[7] = assay year 2015, read-out: % Control Response

T5 sequence (Q92769 whole entry): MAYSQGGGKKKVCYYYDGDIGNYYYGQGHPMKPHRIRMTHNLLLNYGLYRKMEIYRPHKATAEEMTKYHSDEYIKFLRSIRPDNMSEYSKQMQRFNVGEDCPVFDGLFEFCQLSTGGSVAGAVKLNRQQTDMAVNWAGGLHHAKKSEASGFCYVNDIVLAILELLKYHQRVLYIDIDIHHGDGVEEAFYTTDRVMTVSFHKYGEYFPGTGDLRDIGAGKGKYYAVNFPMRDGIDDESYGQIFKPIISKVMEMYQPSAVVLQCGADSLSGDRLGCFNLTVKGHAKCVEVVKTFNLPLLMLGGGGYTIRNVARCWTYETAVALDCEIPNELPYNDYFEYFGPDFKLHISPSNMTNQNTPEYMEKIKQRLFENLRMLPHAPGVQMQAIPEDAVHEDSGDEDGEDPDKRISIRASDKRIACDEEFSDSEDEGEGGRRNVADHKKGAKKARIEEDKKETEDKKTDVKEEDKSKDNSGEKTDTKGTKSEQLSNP
Sequence of PKBalpha/AKT1(h) (substrate histone H3 full length) (P31749 whole entry): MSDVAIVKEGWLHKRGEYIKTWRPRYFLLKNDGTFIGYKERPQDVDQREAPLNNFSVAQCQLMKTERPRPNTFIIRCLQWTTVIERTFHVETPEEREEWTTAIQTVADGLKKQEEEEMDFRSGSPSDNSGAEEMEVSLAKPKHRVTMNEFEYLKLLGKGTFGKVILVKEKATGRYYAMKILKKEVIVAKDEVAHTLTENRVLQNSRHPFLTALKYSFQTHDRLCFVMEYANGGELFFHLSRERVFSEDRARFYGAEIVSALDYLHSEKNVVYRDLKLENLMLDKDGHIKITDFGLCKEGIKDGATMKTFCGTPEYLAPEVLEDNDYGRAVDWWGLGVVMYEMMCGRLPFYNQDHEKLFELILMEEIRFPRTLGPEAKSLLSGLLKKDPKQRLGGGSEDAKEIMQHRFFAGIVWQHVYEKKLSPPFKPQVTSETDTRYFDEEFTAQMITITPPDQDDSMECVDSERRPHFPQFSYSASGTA
T6 sequence (P35367 whole entry): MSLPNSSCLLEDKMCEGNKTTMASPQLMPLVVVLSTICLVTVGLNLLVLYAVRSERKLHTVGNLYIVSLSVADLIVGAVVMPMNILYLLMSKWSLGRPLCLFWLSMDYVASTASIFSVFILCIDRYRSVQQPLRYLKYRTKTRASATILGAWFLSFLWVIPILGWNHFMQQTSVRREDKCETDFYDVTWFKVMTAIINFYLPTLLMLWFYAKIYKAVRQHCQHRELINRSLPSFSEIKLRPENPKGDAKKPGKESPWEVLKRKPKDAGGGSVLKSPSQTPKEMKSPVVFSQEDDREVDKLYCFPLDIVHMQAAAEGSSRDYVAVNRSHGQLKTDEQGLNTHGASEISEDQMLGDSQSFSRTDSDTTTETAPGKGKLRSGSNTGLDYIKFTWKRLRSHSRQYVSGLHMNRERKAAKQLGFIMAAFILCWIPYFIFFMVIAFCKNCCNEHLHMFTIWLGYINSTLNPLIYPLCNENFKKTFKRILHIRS
T1 sequence (Q9BXF3 434-538 limits assumed): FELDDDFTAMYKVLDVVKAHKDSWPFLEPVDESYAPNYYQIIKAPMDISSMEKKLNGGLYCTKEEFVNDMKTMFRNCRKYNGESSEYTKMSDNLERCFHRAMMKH
Sequence of Histamine N-methyltransferase (h) (P50135 whole entry): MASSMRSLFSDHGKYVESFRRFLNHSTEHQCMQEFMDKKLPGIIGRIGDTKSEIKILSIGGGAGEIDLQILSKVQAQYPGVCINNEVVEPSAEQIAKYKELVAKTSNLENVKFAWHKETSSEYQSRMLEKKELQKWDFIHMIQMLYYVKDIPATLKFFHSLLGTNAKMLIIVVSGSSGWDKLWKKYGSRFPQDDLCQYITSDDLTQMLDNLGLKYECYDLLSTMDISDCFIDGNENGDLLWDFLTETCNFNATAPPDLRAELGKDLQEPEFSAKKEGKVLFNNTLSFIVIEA
T2 sequence (Q92793 1085-1192 limits assumed): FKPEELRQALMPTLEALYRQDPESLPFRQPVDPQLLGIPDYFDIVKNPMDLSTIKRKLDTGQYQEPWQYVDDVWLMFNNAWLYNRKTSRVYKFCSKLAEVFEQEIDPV
Sequence of TIP60(h) (Q92993 whole entry): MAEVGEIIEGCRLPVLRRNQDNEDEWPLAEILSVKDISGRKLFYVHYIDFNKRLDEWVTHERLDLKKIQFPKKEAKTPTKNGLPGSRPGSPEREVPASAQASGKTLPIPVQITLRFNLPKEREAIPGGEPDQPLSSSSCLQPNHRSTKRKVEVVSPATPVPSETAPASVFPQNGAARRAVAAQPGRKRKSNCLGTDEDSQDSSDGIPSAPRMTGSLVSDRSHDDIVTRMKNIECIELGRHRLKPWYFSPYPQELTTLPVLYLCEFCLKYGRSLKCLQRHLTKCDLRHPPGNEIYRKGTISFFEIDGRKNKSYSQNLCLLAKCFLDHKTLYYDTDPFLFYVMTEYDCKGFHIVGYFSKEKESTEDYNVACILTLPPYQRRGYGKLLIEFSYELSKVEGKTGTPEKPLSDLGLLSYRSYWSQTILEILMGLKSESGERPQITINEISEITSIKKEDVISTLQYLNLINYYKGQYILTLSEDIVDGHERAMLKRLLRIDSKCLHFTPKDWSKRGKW

## CC(C)=CCC[C@H](CO)[C@@H]1CC[C@@H](C)c2c1cc(C)c(O)c2O [Compound 1, 7,8,18-trihydroxyserrulat-14-ene]
CECR2 (h) bromodomain; 10 μM
  % Inhibition of Control Specific Binding: significant inhibitory activity
  inhibition at 10 µM: 100%
CECR2 (h) bromodomain; 3.0E−05M
  inhibition of binding, 1st: 99.4
  inhibition of binding, 2nd: 99.6
  inhibition of binding, Mean: 99.5
CECR2 (h) bromodomain; 3.0E−06M
  inhibition of binding, 1st: 7.3
  inhibition of binding, 2nd: 8.6
  inhibition of binding, Mean: 7.9
CECR2 (h) bromodomain; 3.0E−07M
  inhibition of binding, 1st: −1.5
  inhibition of binding, 2nd: 0.9
  inhibition of binding, Mean: −0.3
CECR2 (h) bromodomain; 3.0E−08M
  inhibition of binding, 1st: −0.9
  inhibition of binding, 2nd: −1.7
  inhibition of binding, Mean: −1.3
CECR2 (h) bromodomain; 3.0E−09M
  inhibition of binding, 1st: 5.9
  inhibition of binding, 2nd: 2.4
  inhibition of binding, Mean: 4.2
CECR2 (h) bromodomain; [5]
  pIC50: 5.30
CREBBP (h) bromodomain; 10 μM
  % Inhibition of Control Specific Binding: significant inhibitory activity
  inhibition at 10 µM: 65%
CREBBP (h) bromodomain; [5]
  pIC50: 5.47
H3K27 ac
  inhibition at 10 µM: -16%
H3K9 ac
  inhibition at 10 µM: 17%
LSD1 (h)
  inhibition at 10 µM: 10%
TIP60(h)
  inhibition at 10 µM: 20%
ASH1L
  inhibition at 10 µM: 3%
MLL complex (h)
  inhibition at 10 µM: 2%
SETD8 (h)
  inhibition at 10 µM: 4%
[1]
  inhibition at 10 µM: -1%
[2]
  inhibition at 10 µM: 18%
[3]
  inhibition at 10 µM: 40%
[4]
  % Control Response: 30%
Deacetylase, Histone 2; [6]
  remaining activity at 10 µM: 56%
Deacetylase, Histone 2; [7]
  remaining activity at 10 µM: 34%
Histamine H1; [6]
  remaining activity at 10 µM: 85%
Histamine H1; [7]
  remaining activity at 10 µM: 97%
Lipoxygenase 12-LO
  remaining activity at 10 µM: 60%
639-V; 3.00E+00 microM
  Relative cell count (%) Mean: 15.8%
639-V; 3.00E+01 microM
  Relative cell count (%) Mean: 0.0%
639-V; 3.01E−01 microM
  Relative cell count (%) Mean: 92.6%
639-V; 3.01E−02 microM
  Relative cell count (%) Mean: 103.6%
639-V; 3.02E−03 microM
  Relative cell count (%) Mean: 96.1%
639-V; 9.49E+00 microM
  Relative cell count (%) Mean: 0.3%
639-V; 9.51E−01 microM
  Relative cell count (%) Mean: 91.9%
639-V; 9.52E−02 microM
  Relative cell count (%) Mean: 91.6%
639-V; 9.53E−03 microM
  Relative cell count (%) Mean: 101.2%
639-V; 9.55E−04 microM
  Relative cell count (%) Mean: 92.0%
639-V
  pEC50: 5.70
  GI50: 2.01 µM
  pIC50: 5.70
HCT-8; HCT-8, 3.00E+00 microM
  Relative cell count (%) Mean: 1.9%
HCT-8; HCT-8, 3.00E+01 microM
  Relative cell count (%) Mean: 0.0%
HCT-8; HCT-8, 3.01E−01 microM
  Relative cell count (%) Mean: 94.9%
HCT-8; HCT-8, 3.01E−02 microM
  Relative cell count (%) Mean: 91.8%
HCT-8; HCT-8, 3.02E−03 microM
  Relative cell count (%) Mean: 104.1%
HCT-8; HCT-8, 9.49E+00 microM
  Relative cell count (%) Mean: 0.0%
HCT-8; HCT-8, 9.51E−01 microM
  Relative cell count (%) Mean: 72.6%
HCT-8; HCT-8, 9.52E−02 microM
  Relative cell count (%) Mean: 100.8%
HCT-8; HCT-8, 9.53E−03 microM
  Relative cell count (%) Mean: 91.0%
HCT-8; HCT-8, 9.55E−04 microM
  Relative cell count (%) Mean: 102.6%
HCT-8
  pEC50: 5.91
  GI50: 1.23 µM
  pIC50: 5.91

## CC(C)=CCC[C@@H]1C(O)Oc2c(C)cc(O)c3c2[C@H]1CC[C@H]3C (stereo partly drawn) [Compound 2, 5,18-epoxyserrulat-14-en-8,18-diol]
CECR2 (h) bromodomain; 10 μM
  inhibition at 10 µM: 25%
CREBBP (h) bromodomain; 10 μM
  inhibition at 10 µM: 21%
H3K27 ac
  inhibition at 10 µM: -12%
H3K9 ac
  inhibition at 10 µM: 3%
LSD1 (h)
  inhibition at 10 µM: 10%
TIP60(h)
  inhibition at 10 µM: 10%
ASH1L
  inhibition at 10 µM: 20%
MLL complex (h)
  inhibition at 10 µM: 22%
SETD8 (h)
  inhibition at 10 µM: 25%
[1]
  inhibition at 10 µM: -19%
[2]
  inhibition at 10 µM: -2%
[3]
  inhibition at 10 µM: 28%
[4]
  % Control Response: −28%
Deacetylase, Histone 2; [6]
  remaining activity at 10 µM: 44%
Deacetylase, Histone 2; [7]
  remaining activity at 10 µM: 21%
Histamine H1; [6]
  remaining activity at 10 µM: 66%
Histamine H1; [7]
  remaining activity at 10 µM: 60%
Lipoxygenase 12-LO
  remaining activity at 10 µM: 40%
639-V
  pEC50: 5.18
  GI50: 7.98 µM
  pIC50: 5.10
HCT-8
  pEC50: 5.20
  GI50: 6.24 µM
  pIC50: 5.20

## Nc1ncnc2c1ncn2[C@@H]1O[C@H](CSCC[C@H](N)C(=O)O)[C@@H](O)[C@H]1O [SAH]
ASH1L; read-out: Reference IC50
  pIC50: 5.04
MLL complex (h); read-out: Reference IC50
  pIC50: 6.01

## CC(C)=CCC[C@@H]1COc2c(C)cc(O)c3c2[C@H]1CC[C@H]3C [Compound 3, 5,18-epoxy-8-hydroxyserrulat-14-ene]
CECR2 (h) bromodomain; 10 μM
  inhibition at 10 µM: 15%
CREBBP (h) bromodomain; 10 μM
  inhibition at 10 µM: 17%
H3K27 ac
  inhibition at 10 µM: -11%
H3K9 ac
  inhibition at 10 µM: -1%
LSD1 (h)
  inhibition at 10 µM: -3%
TIP60(h)
  inhibition at 10 µM: -3%
ASH1L
  inhibition at 10 µM: -54%
MLL complex (h)
  inhibition at 10 µM: 11%
SETD8 (h)
  inhibition at 10 µM: -10%
[1]
  inhibition at 10 µM: -15%
[2]
  inhibition at 10 µM: 18%
[3]
  inhibition at 10 µM: 19%
[4]
  % Control Response: −1%
Deacetylase, Histone 2; [7]
  remaining activity at 10 µM: 12%
Histamine H1; [7]
  remaining activity at 10 µM: 50%
Lipoxygenase 12-LO
  remaining activity at 10 µM: 29%

## CC(C)=CCC[C@H](C)[C@@H]1CC[C@@H](C)c2c1cc(C)c(O)c2O [Compound 4, 7,8-dihydroxyserrulat-14-ene]
639-V
  pEC50: 4.92
  GI50: 12 µM
  pIC50: 4.92
HCT-8
  pEC50: 4.89
  GI50: 12.9 µM
  pIC50: 4.89
